In patent US7985766B2, “Combination of anticholineric and β mimetics for the treatment of respiratory diseases” (MEDA Pharma GmbH & Co. KG, priority 2004, dated 2011):
Like-named read-outs stand apart in the source and are kept apart here.

System: guinea pigs
Conditions: for inhibition of acetylcholine-induced bronchoconstriction (bronchodilatory effect): 1 μg/kg, single drug; for inhibition of acetylcholine-induced bronchoconstriction (bronchodilatory effect) / inhibition of the bronchospasm: i.th.; for inhibition of acetylcholine-induced bronchoconstriction, dose dependence: i.th. 1-10 μg/kg, acetylcholine 10 μg/kg i.v., anesthetized male guinea pigs
Protocol: After cannulating the trachea, animals were respired using a small animal respiratory pump with a constant tidal volume and a rate of 60 breaths/min. The lung resistance was measured by using a rodent lung function recording system (MUMED, London, UK). Compounds were given intravenously (i.v.) via a catheter placed in the right jugular vein. After surgery, the animals were allowed to stabilize. 10 min before acetylcholine (10 μg/kg, i.v.) administration, the guinea pigs were disconnected from the respirator and either vehicle (10 mg/lactose) or different amounts of drugs (blended with lactose) were administered intratracheally (i.th.) using a syringe. The trachea was then reconnected to the respirator and changes in pulmonary mechanics were recorded. Acetylcholine (10 μg/kg) was injected intravenously in every 10 minutes for 60 min.

| Compound | inhibition of acetylcholine-induced bronchoconstriction (bronchodilatory effect) | inhibition of the bronchospasm (3 μg/kg) | inhibition of the bronchospasm (10 μg/kg) | inhibition of acetylcholine-induced bronchoconstriction, dose dependence |
| --- | --- | --- | --- | --- |
| C[N+]1(C)CC[C@@H](OC(=O)[C@](O)(c2ccccc2)C2CCCC2)C1.[Br-] [R,R-glycopyrrolate] | not effective | ca. 40% | about 80% | dose-dependently inhibited |
| COc1ccc(CC(C)NCC(O)c2ccc(O)c(NC=O)c2)cc1 (stereo not drawn) [formoterol] | did not show any bronchodilatory effects | – | – | dose-dependently inhibited |
